Experimental data reported in ChEMBL document CHEMBL2424640, “Dihydrothiazolopyridone derivatives as a novel family of positive allosteric modulators of the metabotropic glutamate 5 (mGlu5) receptor” (J Med Chem, 2013).

Tests used:
[1] = target: Metabotropic glutamate receptor 5 (Homo sapiens, UniProt P41594)
Description: Positive allosteric modulation of human mGluR5a transfected in HEK293 cells by calcium mobilization assay

[2] = target: Metabotropic glutamate receptor 6 (Rattus norvegicus, UniProt P35349)
Description: Positive allosteric modulation of rat mGlu6 receptor expressed in CHO cells by [35S]-GTPgammaS binding assay

[3] = target: Metabotropic glutamate receptor 2 (Homo sapiens, UniProt Q14416)
Description: Positive allosteric modulation of human mGlu2 receptor expressed in HEK293 cells by fluorescent Ca2+ assay

[4] = target: Metabotropic glutamate receptor 3 (Homo sapiens, UniProt Q14832)
Chain of Metabotropic glutamate receptor 3 (Q14832 whole entry): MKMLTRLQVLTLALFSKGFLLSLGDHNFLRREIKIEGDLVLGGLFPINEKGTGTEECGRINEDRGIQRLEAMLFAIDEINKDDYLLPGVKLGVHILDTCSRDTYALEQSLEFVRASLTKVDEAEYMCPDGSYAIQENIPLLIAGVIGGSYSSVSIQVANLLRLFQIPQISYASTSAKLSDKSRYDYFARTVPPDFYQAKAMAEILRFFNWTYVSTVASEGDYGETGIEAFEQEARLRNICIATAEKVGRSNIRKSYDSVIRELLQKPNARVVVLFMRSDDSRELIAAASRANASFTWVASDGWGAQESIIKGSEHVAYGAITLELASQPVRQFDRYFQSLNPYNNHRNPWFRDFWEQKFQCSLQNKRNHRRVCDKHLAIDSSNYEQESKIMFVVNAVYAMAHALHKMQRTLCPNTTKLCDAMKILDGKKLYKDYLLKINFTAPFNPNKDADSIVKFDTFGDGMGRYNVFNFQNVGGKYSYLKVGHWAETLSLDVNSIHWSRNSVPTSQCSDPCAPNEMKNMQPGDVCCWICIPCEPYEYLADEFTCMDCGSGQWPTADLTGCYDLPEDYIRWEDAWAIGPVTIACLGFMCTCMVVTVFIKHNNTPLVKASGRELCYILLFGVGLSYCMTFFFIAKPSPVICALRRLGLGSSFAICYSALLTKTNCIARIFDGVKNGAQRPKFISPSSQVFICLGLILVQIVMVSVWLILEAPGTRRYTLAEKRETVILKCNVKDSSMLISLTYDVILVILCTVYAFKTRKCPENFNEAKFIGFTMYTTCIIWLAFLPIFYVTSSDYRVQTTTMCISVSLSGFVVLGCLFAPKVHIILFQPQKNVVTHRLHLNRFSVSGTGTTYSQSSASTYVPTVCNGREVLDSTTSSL
Description: Positive allosteric modulation of human mGlu3 receptor expressed in HEK293 cells by fluorescent Ca2+ assay

[5] = target: Metabotropic glutamate receptor 4 (Homo sapiens, UniProt Q14833)
Description: Positive allosteric modulation of human mGlu4 receptor expressed in HEK293 cells by fluorescent Ca2+ assay

[6] = target: Metabotropic glutamate receptor 1 (Homo sapiens, UniProt Q13255)
Chain of Metabotropic glutamate receptor 1 (Q13255 whole entry): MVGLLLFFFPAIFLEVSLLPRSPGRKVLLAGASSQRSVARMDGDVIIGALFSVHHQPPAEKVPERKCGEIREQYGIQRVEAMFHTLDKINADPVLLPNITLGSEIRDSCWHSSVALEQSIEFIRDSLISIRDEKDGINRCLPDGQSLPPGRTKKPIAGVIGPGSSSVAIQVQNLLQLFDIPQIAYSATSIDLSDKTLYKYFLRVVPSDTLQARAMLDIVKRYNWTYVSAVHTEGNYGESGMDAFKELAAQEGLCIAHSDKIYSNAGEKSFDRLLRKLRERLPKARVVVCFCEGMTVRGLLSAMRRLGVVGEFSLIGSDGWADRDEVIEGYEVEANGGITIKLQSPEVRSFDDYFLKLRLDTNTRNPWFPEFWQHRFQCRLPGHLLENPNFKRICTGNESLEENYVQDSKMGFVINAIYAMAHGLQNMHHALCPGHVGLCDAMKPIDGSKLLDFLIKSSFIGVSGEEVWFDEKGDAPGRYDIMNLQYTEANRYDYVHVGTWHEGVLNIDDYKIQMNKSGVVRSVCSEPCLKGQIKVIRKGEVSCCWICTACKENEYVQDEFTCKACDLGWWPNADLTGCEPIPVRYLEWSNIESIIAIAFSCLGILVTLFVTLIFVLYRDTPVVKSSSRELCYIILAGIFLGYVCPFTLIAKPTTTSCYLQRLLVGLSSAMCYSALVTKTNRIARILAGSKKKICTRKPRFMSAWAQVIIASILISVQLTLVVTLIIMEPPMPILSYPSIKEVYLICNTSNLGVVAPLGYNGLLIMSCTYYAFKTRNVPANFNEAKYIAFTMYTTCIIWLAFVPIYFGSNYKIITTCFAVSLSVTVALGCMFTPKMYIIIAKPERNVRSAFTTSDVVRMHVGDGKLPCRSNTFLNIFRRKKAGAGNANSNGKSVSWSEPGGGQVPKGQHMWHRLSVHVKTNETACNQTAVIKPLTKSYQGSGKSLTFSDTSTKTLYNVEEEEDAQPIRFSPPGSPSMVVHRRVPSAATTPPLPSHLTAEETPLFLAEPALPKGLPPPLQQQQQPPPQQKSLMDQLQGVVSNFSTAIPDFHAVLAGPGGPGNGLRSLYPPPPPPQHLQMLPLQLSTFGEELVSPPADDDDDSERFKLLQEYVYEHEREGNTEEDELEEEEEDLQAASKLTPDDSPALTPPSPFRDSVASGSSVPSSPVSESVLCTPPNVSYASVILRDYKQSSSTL
Description: Positive allosteric modulation of human mGlu1 receptor expressed in HEK293 cells by fluorescent Ca2+ assay

[7] = target: Metabotropic glutamate receptor 7 (Homo sapiens, UniProt Q14831)
Chain of Metabotropic glutamate receptor 7 (Q14831 whole entry): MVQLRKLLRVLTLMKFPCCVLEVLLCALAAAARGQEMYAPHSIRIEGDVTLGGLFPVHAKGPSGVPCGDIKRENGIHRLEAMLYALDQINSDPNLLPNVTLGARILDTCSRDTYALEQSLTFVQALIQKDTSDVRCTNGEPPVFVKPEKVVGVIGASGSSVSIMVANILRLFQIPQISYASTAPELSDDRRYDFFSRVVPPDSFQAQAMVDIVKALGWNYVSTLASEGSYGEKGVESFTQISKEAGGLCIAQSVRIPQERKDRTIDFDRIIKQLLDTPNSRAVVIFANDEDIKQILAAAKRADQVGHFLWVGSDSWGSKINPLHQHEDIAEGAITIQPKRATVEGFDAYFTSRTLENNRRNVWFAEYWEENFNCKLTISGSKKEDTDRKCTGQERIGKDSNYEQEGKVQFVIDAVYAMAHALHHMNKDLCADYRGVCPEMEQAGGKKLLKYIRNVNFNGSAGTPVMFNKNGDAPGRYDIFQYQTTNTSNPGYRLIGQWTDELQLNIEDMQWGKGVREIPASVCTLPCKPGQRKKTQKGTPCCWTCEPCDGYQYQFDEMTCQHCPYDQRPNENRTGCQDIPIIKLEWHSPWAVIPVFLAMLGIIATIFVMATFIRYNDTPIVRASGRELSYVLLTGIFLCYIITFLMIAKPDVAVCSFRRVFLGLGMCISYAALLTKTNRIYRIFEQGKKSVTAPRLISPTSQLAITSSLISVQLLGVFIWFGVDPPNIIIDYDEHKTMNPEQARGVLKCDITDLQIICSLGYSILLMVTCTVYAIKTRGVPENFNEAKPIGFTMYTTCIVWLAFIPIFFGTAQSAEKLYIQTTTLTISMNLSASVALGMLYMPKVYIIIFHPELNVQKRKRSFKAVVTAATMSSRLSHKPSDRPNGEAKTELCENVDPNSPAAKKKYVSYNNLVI
Description: Positive allosteric modulation of human mGlu7 receptor expressed in HEK293 cells by fluorescent Ca2+ assay

[8] = target: Metabotropic glutamate receptor 8 (Homo sapiens, UniProt O00222)
Description: Positive allosteric modulation of human mGlu8 receptor expressed in HEK293 cells by fluorescent Ca2+ assay

Chain of Metabotropic glutamate receptor 6 (P35349 whole entry): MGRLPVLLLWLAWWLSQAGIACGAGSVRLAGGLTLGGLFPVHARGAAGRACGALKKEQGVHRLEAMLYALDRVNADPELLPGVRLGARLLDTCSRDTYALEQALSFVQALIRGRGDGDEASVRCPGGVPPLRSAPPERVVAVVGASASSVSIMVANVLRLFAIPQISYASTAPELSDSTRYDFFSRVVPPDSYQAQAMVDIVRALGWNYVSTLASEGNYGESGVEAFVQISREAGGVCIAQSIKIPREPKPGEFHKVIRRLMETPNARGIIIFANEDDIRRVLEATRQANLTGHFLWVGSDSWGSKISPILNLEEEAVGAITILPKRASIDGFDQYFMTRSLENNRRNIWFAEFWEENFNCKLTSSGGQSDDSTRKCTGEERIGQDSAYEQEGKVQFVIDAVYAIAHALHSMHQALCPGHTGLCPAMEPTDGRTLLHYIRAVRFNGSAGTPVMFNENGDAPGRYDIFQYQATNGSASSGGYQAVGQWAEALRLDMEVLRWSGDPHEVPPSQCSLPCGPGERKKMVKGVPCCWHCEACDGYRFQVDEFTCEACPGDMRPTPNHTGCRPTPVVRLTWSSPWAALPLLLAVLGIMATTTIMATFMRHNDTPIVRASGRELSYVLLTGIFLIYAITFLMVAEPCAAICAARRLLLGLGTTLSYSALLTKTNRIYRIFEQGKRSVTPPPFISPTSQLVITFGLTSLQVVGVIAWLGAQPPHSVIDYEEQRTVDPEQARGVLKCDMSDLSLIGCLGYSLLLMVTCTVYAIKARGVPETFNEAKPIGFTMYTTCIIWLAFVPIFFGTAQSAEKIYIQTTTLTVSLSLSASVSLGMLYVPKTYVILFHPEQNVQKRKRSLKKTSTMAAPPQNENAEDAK
Chain of Metabotropic glutamate receptor 5 (P41594 whole entry): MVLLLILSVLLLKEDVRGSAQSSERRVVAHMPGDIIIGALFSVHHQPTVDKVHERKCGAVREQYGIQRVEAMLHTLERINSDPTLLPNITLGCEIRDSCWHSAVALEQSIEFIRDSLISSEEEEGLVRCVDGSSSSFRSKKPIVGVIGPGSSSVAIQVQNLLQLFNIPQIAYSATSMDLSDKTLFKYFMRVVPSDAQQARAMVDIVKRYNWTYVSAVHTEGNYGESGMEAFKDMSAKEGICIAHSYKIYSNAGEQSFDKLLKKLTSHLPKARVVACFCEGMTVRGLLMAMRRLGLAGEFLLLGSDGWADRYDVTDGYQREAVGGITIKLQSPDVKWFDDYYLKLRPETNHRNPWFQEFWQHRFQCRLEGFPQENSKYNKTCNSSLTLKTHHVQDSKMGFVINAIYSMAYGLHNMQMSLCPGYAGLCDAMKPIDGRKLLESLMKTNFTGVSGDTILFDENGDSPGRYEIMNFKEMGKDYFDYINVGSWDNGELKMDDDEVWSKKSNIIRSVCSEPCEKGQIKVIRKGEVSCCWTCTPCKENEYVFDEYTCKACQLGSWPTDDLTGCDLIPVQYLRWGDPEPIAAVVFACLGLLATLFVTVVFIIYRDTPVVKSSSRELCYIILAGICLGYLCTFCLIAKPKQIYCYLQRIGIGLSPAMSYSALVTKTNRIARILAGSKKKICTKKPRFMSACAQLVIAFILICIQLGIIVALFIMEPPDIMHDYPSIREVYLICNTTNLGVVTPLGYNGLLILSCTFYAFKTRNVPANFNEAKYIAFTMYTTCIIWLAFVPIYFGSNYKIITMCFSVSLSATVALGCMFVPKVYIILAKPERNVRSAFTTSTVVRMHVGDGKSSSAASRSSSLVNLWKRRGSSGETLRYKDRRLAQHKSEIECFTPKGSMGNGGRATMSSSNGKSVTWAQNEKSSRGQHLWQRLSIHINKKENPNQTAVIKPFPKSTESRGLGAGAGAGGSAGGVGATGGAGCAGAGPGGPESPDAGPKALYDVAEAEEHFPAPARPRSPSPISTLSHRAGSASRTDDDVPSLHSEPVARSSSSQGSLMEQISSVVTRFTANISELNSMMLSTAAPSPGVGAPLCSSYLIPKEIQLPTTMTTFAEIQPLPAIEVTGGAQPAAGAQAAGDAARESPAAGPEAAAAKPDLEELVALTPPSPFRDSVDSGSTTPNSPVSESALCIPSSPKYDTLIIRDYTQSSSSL

| SMILES | EC50 [1] [nM] | further results |
| --- | --- | --- |
| COCCN1CCc2nc(C#Cc3ccccc3)sc2C1=O | 119 | – |
| O=C1c2sc(COc3ccccc3)nc2CCN1c1ccc(F)cc1F | 66 | – |
| O=C1CCCc2nc(C#Cc3ccccc3)sc21 | 33 | EC50 [2]: > 10000 nM; EC50 [3]: > 10000 nM; EC50 [4]: > 10000 nM; EC50 [5]: > 10000 nM; EC50 [6]: > 10000 nM; EC50 [7]: > 10000 nM; EC50 [8]: > 10000 nM |
| O=C1c2sc(COc3ccccc3)nc2CCN1CC1CC1 | 250 | – |
| O=C1c2sc(COc3ccccc3)nc2CCN1c1ccc(F)cc1 | 96 | – |
| O=C1c2sc(COc3ccccc3)nc2CCN1c1cccnc1 | 1760 | – |
| COCCN1CCc2nc(COc3ccccc3)sc2C1=O | 2310 | – |
| O=C1c2sc(COc3ccccc3F)nc2CCN1c1ccc(F)cc1 | 553 | – |
| O=C1c2sc(COc3ccccc3)nc2CCN1C1CC1 | 1460 | – |
| O=C1c2sc(COc3ccccc3)nc2CCN1CC1CCOCC1 | 851 | – |
| O=C1c2sc(COc3ccccc3)nc2CCN1c1ccc(F)cn1 | 621 | – |
| O=C1CCOc2cc(OCc3ccccc3)ccc21 | – | EC50 [2]: > 10000 nM; EC50 [3]: > 10000 nM; EC50 [4]: > 10000 nM; EC50 [6]: > 10000 nM; EC50 [7]: > 10000 nM; EC50 [8]: > 10000 nM |
| O=C1c2sc(COc3ccccc3)nc2CCN1c1ccccn1 | 1020 | – |
| O=C1c2sc(COc3ccccc3)nc2CCN1c1ncccc1F | 791 | – |
| O=C1CCc2cc(O)ccc2O1 | > 10000 | – |
| O=C(O)c1ccccc1 [BENZOIC ACID] | > 10000 | – |
| O=C1CCOc2cc(COc3ccccc3)ccc21 | – | EC50 [2]: > 10000 nM; EC50 [3]: > 10000 nM; EC50 [4]: > 10000 nM; EC50 [6]: > 10000 nM; EC50 [7]: > 10000 nM; EC50 [8]: > 10000 nM |
| O=C1c2sc(COc3ccc(F)cc3)nc2CCN1c1ccc(F)cc1 | 739 | – |
| O=C1NCCc2nc(C#Cc3ccccc3)sc21 | 123 | – |
| CC(C)N1CCc2nc(COc3ccccc3)sc2C1=O | 1210 | – |
| CN1CCc2nc(C#Cc3ccccc3)sc2C1=O | 193 | – |
| O=C1c2sc(OCc3ccccc3)nc2CCN1c1ccc(F)cc1 | 1130 | – |
| O=C1c2sc(COc3cccc(F)c3)nc2CCN1c1ccc(F)cc1 | 77 | – |
| O=C(c1ccc(F)cc1)N1CCC[C@H](c2nc(-c3ccc(F)cc3)no2)C1 | 199 | – |
| CN1CCc2nc(OCc3ccccc3)sc2C1=O | 1750 | – |
